In patent publication US11673866B2, “Estrogen receptor beta ligands for the prevention and treatment of multiple sclerosis (MS) and other demyelinating, inflammatory and neurodegenerative diseases” (The Board of Trustees of the University of Illinois, priority 2018, dated 2023):

Assays:
[1] = target: T1, ERα (Homo sapiens, UniProt P03372); test: Relative binding affinity (RBA) to estrogen receptor alpha, radiometric measurement; conditions: relative value to 100% for E2 by radiometric measurement
T1 sequence (P03372 1-595): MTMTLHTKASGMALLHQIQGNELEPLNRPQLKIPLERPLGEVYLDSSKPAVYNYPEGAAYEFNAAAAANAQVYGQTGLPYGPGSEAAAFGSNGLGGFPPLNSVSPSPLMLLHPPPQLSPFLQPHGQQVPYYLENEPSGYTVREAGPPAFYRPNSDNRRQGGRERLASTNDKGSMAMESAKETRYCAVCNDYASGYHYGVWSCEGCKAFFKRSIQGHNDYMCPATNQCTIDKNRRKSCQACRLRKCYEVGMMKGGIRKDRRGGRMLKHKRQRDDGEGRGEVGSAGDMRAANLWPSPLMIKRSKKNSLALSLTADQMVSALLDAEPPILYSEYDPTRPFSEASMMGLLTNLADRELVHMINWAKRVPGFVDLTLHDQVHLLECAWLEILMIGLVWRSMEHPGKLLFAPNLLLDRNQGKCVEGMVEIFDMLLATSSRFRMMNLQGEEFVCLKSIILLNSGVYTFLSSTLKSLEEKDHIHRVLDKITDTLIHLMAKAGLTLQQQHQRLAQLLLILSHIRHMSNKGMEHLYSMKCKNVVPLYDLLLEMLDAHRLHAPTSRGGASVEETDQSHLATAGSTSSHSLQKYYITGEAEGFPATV

[2] = system: primary OPCs/OLs; test: Primary OPC/OL differentiation and survival (O4, MOG, DAPI staining); format: cell-based, mouse; conditions: for number of MOG+ OLs: vs vehicle-treated cells, FIG. 12B
From the text: FIG. 12A is representative images of primary OPCs/OLs from wells containing differentiating media in the presence of different analogues. OLs were immunostained with an antigen on the surface of oligodendrocyte progenitors, O4, a marker of mature oligodendrocytes, myelin oligodendrocyte glycoprotein, MOG and co-stained with nuclear stain DAPI.
FIG. 12B and FIG. 12C show quantification of the effects of treatment on the number of MOG+ OLs and the number of total cells (DAPI), respectively. […] There were 3 wells/treatment group. n=3 independent experiments were performed. One-Way ANOVA with Dunnett's multiple comparisons test.
The effect on cell differentiation and survival of estrogen receptor § (ERP) ligand IndCl and analogs were investigated. Some estrogen receptor § (ERP) ligands increase primary mouse oligodendrocyte differentiation (FIGS. 12A-12C).

[3] = target: ERβ (Homo sapiens, UniProt Q92731); test: Relative binding affinity (RBA) to estrogen receptor beta, radiometric measurement; conditions: for β/α Ratio: ratio of RBA ERβ to RBA ERα; for RBA ERβ: relative value to 100% for E2 by radiometric measurement
Sequence of ERβ (Q92731 whole entry, species assumed): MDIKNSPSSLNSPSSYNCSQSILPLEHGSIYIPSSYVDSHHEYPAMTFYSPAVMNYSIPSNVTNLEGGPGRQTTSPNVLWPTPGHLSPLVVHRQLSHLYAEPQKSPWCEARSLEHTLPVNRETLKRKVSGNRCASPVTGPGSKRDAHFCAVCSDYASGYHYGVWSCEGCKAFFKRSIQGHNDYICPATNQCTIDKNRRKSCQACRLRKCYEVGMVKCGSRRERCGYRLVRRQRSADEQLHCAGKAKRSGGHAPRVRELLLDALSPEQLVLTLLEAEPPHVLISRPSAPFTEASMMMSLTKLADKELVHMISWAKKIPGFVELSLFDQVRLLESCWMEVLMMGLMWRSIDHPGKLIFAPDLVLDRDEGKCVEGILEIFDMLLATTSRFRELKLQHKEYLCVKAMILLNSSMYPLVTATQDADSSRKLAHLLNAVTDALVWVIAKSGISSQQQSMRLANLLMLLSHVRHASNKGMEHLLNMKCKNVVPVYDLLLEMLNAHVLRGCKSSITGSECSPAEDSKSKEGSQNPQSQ

[4] = system: primary oligodendrocyte and oligodendrocyte precursor cells (OL/OPCs); test: Primary OPC culture differentiation (MBP immunostaining, DAPI); format: cell-based, mouse; set-up: key to %MBP+/DAPI: *: The level of production of myelin basic protein (MBP); ---: reduction of MBP; conditions: level of production of myelin basic protein in primary OPC/OL cultures
Method: Primary OPC Cultures: Primary OPCs, isolated from postnatal day P1 C57BL/6 male and female mouse cortices as described previously, were treated with 10 nM ligands in differentiating medium for 3 days (Tiwari-Woodruff et al., 2001; Tiwari-Woodruff et al., 2006). Primary OPC were cultured into 8-well chamber slides (three wells per condition, 2.5×10^5 cells/well) for three days to attach and […] in differentiating media (consisting of DMEM-F12 with triiodothyronine- and thyroxine-containing Sato as well as penicillin, streptomycin, insulin, N-acetyl-L-cysteine, forskolin, ciliary neurotrophic factor, neurotrophin-3, and platelet-derived growth factor receptor α (Tiwari-Woodruff et al., 2001)). A positive control (IndCl), a negative control (Vehicle consisting of the media+EtOH mixture used to dissolve IndCl), and a normal control (differentiating media alone) were used for comparison. At the end of the treatment period, cells were fixed, stained by immunocytochemistry (primary antibody polyclonal chicken myelin basic protein (MBP, Millipore AB9348), shown in green and co-stained with nuclear stain—DAPI shown in blue), and imaged with an Olympus BX61 confocal microscope (Olympus America Inc., Center Valley, Pa.) at 10× magnification (3 images per well). Cells were counted using the ImageJ multipoint tool, and counts were then divided by the image area (mm^2). Average cell density for each condition was then divided by the normal condition cell density. Analysis of OL differentiation consisted of counting the number of MBP+ cells and process extensions that were longer than the respective cell-body diameter and tracking the number of highly branched MBP+ cells (with three or more processes) (Monnerie et al., 2017). Statistics were performed using GraphPad Prism 6 Software (La Jolla, Calif.). One-way ANOVA with Tukey's posthoc test for multiple comparisons was used to generate p-values, and data are presented as mean SEM (with α≤0.05).
Primary OPC cultures were used as a convenient cell-based assay to characterize the proliferation and/or differentiation effects of the new IndCl analogues and to select those most suitable for more extensive studies to be done in comparison with the parental ligand, IndCl. 48 hours after plating OPCs, one of seven IndCl analogues (FIG. 1A) was added to differentiating media at a concentration of 10 nM (De Angelis et al., 2005; Saijo et al., 2011). OPCs were allowed to differentiate for 3 days in the presence of IndCl or analogues, at which point they were fixed, immunostained for OPC/OL markers, and quantified. […] The total number of cells in culture was not altered by any treatment (FIGS. 1B and 1D).

| SMILES | RBA ERα [1] [%] | number of total cells (DAPI) ([2]; FIG. 12C) | number of MOG+ OLs [2] | β/α Ratio [3] | RBA ERβ [3] [%] | %MBP+/DAPI [4] |
| --- | --- | --- | --- | --- | --- | --- |
| Oc1ccc(-n2nc3ccc(O)cc3c2F)c(Br)c1 [IndF-o-Br, 2-(2-bromo-4-hydroxyphenyl)-3-fluoro-2H-indazol-5-ol] | 0.37 | significant increase | significant increase | 3.3 | 1.22 |  |
| Cc1cc(O)ccc1-n1nc2ccc(O)cc2c1Br [IndBr-o-Me, 3-bromo-2-(4-hydroxy-2-methylphenyl)-2H-indazol-5-ol] | 1.22 |  | significant increase | 9.8 | 11.99 |  |
| N#Cc1cc(O)ccc1-n1nc2ccc(O)cc2c1Cl [IndCl-o-CN, 2-(3-chloro-5-hydroxy-2H-indazol-2-yl)-5-hydroxybenzonitrile] | 0.05 |  |  | 15.7 | 0.77 | --- |
| Cc1cc(O)ccc1-n1nc2ccc(O)cc2c1F [IndF-o-Me, 3-fluoro-2-(4-hydroxy-2-methylphenyl)-2H-indazol-5-ol] | 0.11 |  | significant increase | 3.4 | 0.37 | * * * * * |
